Values joined by “and” are separate entries in the source; they are usually repeats but may differ in a detail not shown here. Equal entries are not always repeated. Toxic doses and inconclusive results are not listed.

This assay deals with P388 leukemia ip, CD2F1 mice, survival T/C. The assay can be described thus: NCI In Vivo Anticancer Drug Screen. Data for tumor model P388 Leukemia (intraperitoneal) in CD2F1 (CDF1) mice. To be noted: endpoint: median survival time, higher = longer survival. The essentials:
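Mice carrying the transplanted tumor received test compound or vehicle. Survival was recorded in each group, and the value is the treated-group measurement divided by that of the vehicle-treated control group.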

Where [1] appears, read: dose: 50.0 mg/kg/injection, schedule: Q01DX005 (ip), vehicle: Klucel (hydroxypropylcellulose) (HPC).
The mark [2] stands for this setting: dose: 100.0 mg/kg/injection, schedule: Q01DX005 (ip), vehicle: Klucel (hydroxypropylcellulose) (HPC).
Where [3] appears, read: dose: 200.0 mg/kg/injection, schedule: Q01DX005 (ip), vehicle: Klucel (hydroxypropylcellulose) (HPC).
[4] abbreviates: dose: 50.0 mg/kg/injection, schedule: Q01DX005 (ip), vehicle: saline with Tween-80.
The mark [5] stands for this setting: dose: 100.0 mg/kg/injection, schedule: Q01DX005 (ip), vehicle: saline with Tween-80.
The mark [6] stands for this setting: dose: 200.0 mg/kg/injection, schedule: Q01DX005 (ip), vehicle: saline with Tween-80.
[7] abbreviates: dose: 60.0 mg/kg/injection, schedule: Q01DX005 (ip), vehicle: saline with Tween-80.
[8] abbreviates: dose: 120.0 mg/kg/injection, schedule: Q01DX005 (ip), vehicle: saline with Tween-80.
Setting [9] is: dose: 240.0 mg/kg/injection, schedule: Q01DX005 (ip), vehicle: saline with Tween-80.
The mark [10] stands for this setting: dose: 12.5 mg/kg/injection, schedule: Q01DX009 (ip), vehicle: saline with Tween-80.
Setting [11] is: dose: 25.0 mg/kg/injection, schedule: Q01DX009 (ip), vehicle: saline with Tween-80.
[12] abbreviates: dose: 50.0 mg/kg/injection, schedule: Q01DX009 (ip), vehicle: saline with Tween-80.

Consider `CC12CC3OC(=O)C1COC14OC5(C2C1=O)C(O)(CCC1C4CC(O)C2(O)CC=CC(=O)C12C)C(=O)OC35C` (centres undefined), for which the T/C runs as follows: (dose: 12.0 mg/kg/injection, schedule: Q01DX009 (ip), vehicle: Klucel (hydroxypropylcellulose) (HPC)) 94 % of control; (dose: 24.0 mg/kg/injection, schedule: Q01DX009 (ip), vehicle: Klucel (hydroxypropylcellulose) (HPC)) 110 % of control; (dose: 48.0 mg/kg/injection, schedule: Q01DX009 (ip), vehicle: Klucel (hydroxypropylcellulose) (HPC)) 109 % of control.
Consider `O=C(C#Cc1ccccc1)c1cccnc1`, for which the T/C is 107 % of control (dose: 12.5 mg/kg/injection, schedule: Q04DX003 (ip), vehicle: Klucel (hydroxypropylcellulose) (HPC)) and 107 % of control (dose: 25.0 mg/kg/injection, schedule: Q04DX003 (ip), vehicle: Klucel (hydroxypropylcellulose) (HPC)).
Take `CC(=NCCCCN=C(C)c1cc(C)ccc1O)c1cc(C)ccc1O`: the T/C runs as follows: under setting [1], 98 % of control; under setting [2], 100 % of control; under setting [3], 103 % of control.
`Cn1c(CCCCCCCCc2c(C(=O)/C=C/c3ccccc3)c(=O)n(C)c(=O)n2C)c(C(=O)/C=C\c2ccccc2)c(=O)n(C)c1=O`: the T/C is 88 % of control under setting [4], 90 % of control under setting [5] and 90 % of control under setting [6].
Consider `COC(=O)c1c2c(cc3nc4ccccc4nc13)OCO2`, for which the T/C runs as follows: under setting [7], 96 % of control; under setting [8], 97 % of control; under setting [9], 90 % of control.
As to `COc1c(Br)c2c(c(OC)c1OC)-c1ccc(OC)c(=O)cc1C(NC(C)=O)CC2` (centres undefined), the T/C reads like this: (dose: 1.56 mg/kg/injection, schedule: Q01DX009 (ip), vehicle: Klucel (hydroxypropylcellulose) (HPC)) 165 % of control; (dose: 3.12 mg/kg/injection, schedule: Q01DX009 (ip), vehicle: Klucel (hydroxypropylcellulose) (HPC)) 101 % of control and 96 % of control.
In the case of `COC(=O)c1nn(C)c(=O)[nH]c1=O`, the T/C under setting [4] was 103 % of control, the T/C under setting [5] was 98 % of control and the T/C under setting [6] was 100 % of control.
Turning to `CC1CN(CC#CCN2C(=O)CCC2=O)CC(C)O1` (centres undefined), the T/C reads like this: (dose: 25.0 mg/kg/injection, schedule: Q01DX005 (ip), vehicle: Klucel (hydroxypropylcellulose) (HPC)) 103 % of control; under setting [1], 107 % of control; under setting [2], 103 % of control; under setting [3], 107 % of control.
Regarding `CC1(O)C(c2ccccc2)=C(c2ccccc2)C2(c3ccccc3)Oc3c(Cl)c(Cl)c(Cl)c(Cl)c3OC12c1ccccc1` (centres undefined), the T/C runs as follows: under setting [10], 94 % of control; under setting [11], 94 % of control; under setting [12], 90 % of control and 93 % of control.
Consider `CC1(C)COCN1COC1CCCCC1`, for which the T/C (dose: 25.0 mg/kg/injection, schedule: Q01DX009 (ip), vehicle: saline) is 120 % of control.
Consider `O=C(CC(O)(C(F)(F)F)C(F)(F)F)CC(O)(C(F)(F)F)C(F)(F)F`, for which the T/C is, setting by setting: (dose: 0.5 mg/kg/injection, schedule: Q04DX003 (ip), vehicle: saline + alcohol) 95 % of control; (dose: 1.0 mg/kg/injection, schedule: Q04DX003 (ip), vehicle: saline + alcohol) 100 % of control; (dose: 1.25 mg/kg/injection, schedule: Q04DX003 (ip), vehicle: saline with Tween-80) 100 % of control and 95 % of control; (dose: 2.0 mg/kg/injection, schedule: Q04DX003 (ip), vehicle: saline + alcohol) 90 % of control; (dose: 2.5 mg/kg/injection, schedule: Q04DX003 (ip), vehicle: saline with Tween-80) 100 % of control; (dose: 5.0 mg/kg/injection, schedule: Q04DX003 (ip), vehicle: saline with Tween-80) 100 % of control and 91 % of control.
`[O-][n+]1c2ccccc2nc2ccccc21`: the T/C under setting [1] is 115 % of control, the T/C under setting [2] was 110 % of control and the T/C under setting [3] was 100 % of control.
As for `COc1ccc(CCNc2ccc(OC)c(OC)c2)cc1OC`, the T/C reads like this: (dose: 12.5 mg/kg/injection, schedule: Q01DX009 (ip), vehicle: water) 91 % of control; (dose: 25.0 mg/kg/injection, schedule: Q01DX009 (ip), vehicle: water) 98 % of control; (dose: 50.0 mg/kg/injection, schedule: Q01DX009 (ip), vehicle: water) 100 % of control; (dose: 100.0 mg/kg/injection, schedule: Q01DX009 (ip), vehicle: water) 95 % of control; (dose: 200.0 mg/kg/injection, schedule: Q01DX009 (ip), vehicle: water) 90 % of control.
Consider `COc1c(COC(C)=O)ccc2c1C(=O)c1ccccc1C2=O`, for which the T/C (dose: 100.0 mg/kg/injection, schedule: Q04DX002 (ip), vehicle: Klucel (hydroxypropylcellulose) (HPC)) is 108 % of control; the T/C (dose: 200.0 mg/kg/injection, schedule: Q04DX002 (ip), vehicle: Klucel (hydroxypropylcellulose) (HPC)) is 92 % of control; the T/C (dose: 400.0 mg/kg/injection, schedule: Q04DX002 (ip), vehicle: Klucel (hydroxypropylcellulose) (HPC)) was 93 % of control.
`COC(=O)c1csc(-c2ccc(CO)o2)n1`: the T/C under setting [4] was 105 % of control, the T/C under setting [5] was 98 % of control and the T/C under setting [6] is 93 % of control.
The matching figures for `O=C1CSC(C2CC=CCC2)N1c1nncs1` (centres undefined): 100 % of control, 91 % of control and 90 % of control.
As for `CCOP(=S)(OCC)Oc1cc(C)nc(C(C)C)n1`, the T/C under setting [12] was 112 % of control and the T/C (dose: 100.0 mg/kg/injection, schedule: Q01DX009 (ip), vehicle: saline with Tween-80) is 111 % of control.
For `C(=Nc1ccc2c(c1)Cc1ccccc1-2)c1ccc2ccccc2c1`, the T/C (dose: 400.0 mg/kg/injection, schedule: Q04DX002 (ip), vehicle: saline) was 90 % of control.
For the compound `C[n+]1c(-c2cccc(OCCCCCCCOc3cccc(-c4c5cc(N)ccc5c5ccc(N)cc5[n+]4C)c3)c2)c2cc(N)ccc2c2ccc(N)cc21`, the T/C was 123 % of control (dose: 0.05 mg/kg/injection, schedule: Q01DX009 (ip), vehicle: water); 103 % of control (dose: 25.0 micrograms/kg/injection, schedule: Q01DX009 (ip), vehicle: water); 118 % of control (dose: 50.0 micrograms/kg/injection, schedule: Q01DX009 (ip), vehicle: water); 120 % of control (dose: 100.0 micrograms/kg/injection, schedule: Q01DX009 (ip), vehicle: water); 100 % of control (dose: 200.0 micrograms/kg/injection, schedule: Q01DX009 (ip), vehicle: water).
Regarding `CS(=O)(=O)/C=C/c1cccc(O)c1`, the T/C was 97 % of control (dose: 50.0 mg/kg/injection, schedule: Q01DX009 (ip), vehicle: Klucel (hydroxypropylcellulose) (HPC)); 96 % of control (dose: 100.0 mg/kg/injection, schedule: Q01DX009 (ip), vehicle: Klucel (hydroxypropylcellulose) (HPC)); 89 % of control (dose: 200.0 mg/kg/injection, schedule: Q01DX009 (ip), vehicle: Klucel (hydroxypropylcellulose) (HPC)).
With `C=C(CCC(C(=O)O)C1C(O)CC2(C)C3=C(CCC12C)C1(C)CCC(OC(C)=O)C(C)(C)C1CC3)C(C)C` (centres undefined), the T/C was 100 % of control under setting [10], 96 % of control under setting [11] and 98 % of control under setting [12].
Consider `C[CH2][GeH][CH2]C.C[CH2][Ge]([CH2]C)[CH2]C`, for which the T/C was 93 % of control (dose: 50.0 mg/kg/injection, schedule: Q01DX009 (ip), vehicle: saline) and 90 % of control (dose: 100.0 mg/kg/injection, schedule: Q01DX009 (ip), vehicle: saline).
Turning to `C[Si](Cn1ccc(=O)[nH]c1=O)(c1ccccc1)c1ccccc1`, the T/C is, setting by setting: (dose: 100.0 mg/kg/injection, schedule: Q01DX001 (ip), vehicle: saline with Tween-80) 109 % of control; (dose: 200.0 mg/kg/injection, schedule: Q01DX001 (ip), vehicle: saline with Tween-80) 100 % of control; (dose: 400.0 mg/kg/injection, schedule: Q01DX001 (ip), vehicle: saline with Tween-80) 95 % of control.
Regarding `Cc1ccc(-c2cn3nc(-c4ccc5c(c4)OCO5)sc3n2)cc1`, the T/C was 92 % of control under setting [7]; 99 % of control and 89 % of control under setting [8]; 87 % of control under setting [9].
As for `O=C(O)CC[n+]1cccc2c1C(=O)C(=O)c1ncccc1-2`, the T/C was 114 % of control (dose: 100.0 mg/kg/injection, schedule: Q04DX002 (ip), vehicle: saline) and 107 % of control (dose: 200.0 mg/kg/injection, schedule: Q04DX002 (ip), vehicle: saline).

Values taken from PubChem BioAssay AID330 (DTP/NCI, 2004).
